From patent US7172889B2, “Biological compositions and methods for treatment of cervical cancer” (Ultra Biotech Limited, priority 2003, dated 2007)

What was measured:
[1] = system: cervical cancer cell line U14; experiment: Survival of mice of the 615 strain transplanted with cervical cancer cell line U14 (Example 7); format: in vivo; conditions: for Number of live animals remaining in the groups after 30 days of treatment: 30 mice per group, 2AY/2NY 0.5 ml oral per day, 2MMC 1.2 mg/kg/day s.c.
Description: The following example illustrates the benefit of a biological composition of the invention in a model of human cervical cancer in mice from the 615 strain. The survival time of mice after tumor injection and treatment was studied.
(§1) The biological composition comprising 10^8 cells per ml of activated and conditioned yeast cells of the strain Saccharomyces carlsbergensis Hansen strain AS2.444 was prepared by the methods described in Section 5.1 and subsections therein.
The animals were prepared in a similar manner as described in Section 6.1.
The mice injected with tumor cells were immediately divided into 4 experimental groups of ten mice per group and one control group. The four experimental groups were triplicated (i.e., using a total of 120 mice in the experimental groups). In group 2AY, the mice received 0.5 ml of the biological composition once per day. In group 2NY, the mice received 0.5 ml of the untreated yeast cells once per day. In group 2MMC, the mice were injected subcutaneously with 1.2 mg of mitomycin C (MMC) per kg body weight per day. In group 2CK1, the mice received 0.5 ml of physiological saline once per day.
The mice received the biological composition, untreated yeast cells, MMC or saline on the same day as the tumor cells were transplanted. The mice in group 2CK2 also started receiving saline on the same day as the other four groups. The biological composition, untreated yeast cells and saline were administered orally by a feeding tube and the MMC by subcutaneous injection for 30 consecutive days. The mice were observed over 6 months from the day of tumor inoculation and survival was recorded. The weight of the mice and the weight of the tumor were determined by standard techniques.

[2] = system: cervical cancer cell line U14; experiment: Tumor growth in mice of the 615 strain transplanted with cervical cancer cell line U14 (Example 6); format: in vivo, mice from the 615 strain; conditions: U14 tumor-bearing 615 mice, 30 consecutive days of treatment, sacrificed on 31st day; AY/NY 0.3 ml oral once per day, MMC 0.8 mg/kg/day s.c.
From the text: The following example illustrates the benefit of a biological composition of the invention in a model of human cervical cancer in mice from the 615 strain. The growth of the tumor in the mice was studied.
The cervical cancer cell line U14 was used in the model which closely resembles the human cervical cancer pathology. Detailed description of the use of cervical cancer cell line U14 can be found in Tao G. et al., 2001, Chin Med J. 114(6):623–7, which is incorporated herein by reference in its entirety.
as §1
The animals used to generate the cervical cancer cells for the experiments were female mice from the 615 strain (obtainable from the Chinese Academy of Military Medical Sciences, Beijing, China) having an average body weight of 20 to 22 gram and 4 to 6 months old. […]
The mice received the biological composition, untreated yeast cells, MMC or saline on the same day as the tumor cells were transplanted. […] The weight of the mice and the weight of the tumor were determined by standard techniques.

[3] = system: cervical cancer cell line U27; experiment: Tumor growth in kun ming mice transplanted with cervical cancer cell line U27 (Example 8); format: in vivo, kun ming mouse; conditions: U27 tumor-bearing kun ming mice, 30 consecutive days of treatment, sacrificed on 31st day; AY/NY 0.3 ml oral once per day, VCR 3 mg/kg/day i.v.
From the text: The following example illustrates the benefit of a biological composition of the invention in a kun ming mouse model of human cervical cancer. The growth of the tumor in the mice was studied.
The cervical cancer cell line U27 was used in the model which closely resembles the human cervical cancer pathology. Detailed description of the use of cervical cancer cell line U27 can be found in Qian S. S. et al., 1987, Zhongguo Yi Xue Ke Xue Yuan Xue Bao 9(1):33–7, which is incorporated herein by reference in its entirety.
as §1
The animals used to generate the cervical cancer cells for the experiments were female kun ming mouse (obtainable from the Chinese Academy of Military Medical Sciences, Beijing, China) having an average body weight of 20 to 22 gram and 5 to 6 months old. […]
The mice received the biological composition, untreated yeast cells, VCR or saline on the same day as the tumor cells were transplanted. […] The weight of the mice and the weight of the tumor were determined by standard techniques.

[4] = system: cervical cancer cell line U27; experiment: Survival of kun ming mice transplanted with cervical cancer cell line U27 (Example 9); format: in vivo; conditions: for Number of live animals remaining in the groups after 30 days of treatment: 30 mice per group, 2AY/2NY 0.5 ml oral per day, 2VCR 4.5 mg/kg/day i.v.
Description: The following example illustrates the benefit of a biological composition of the invention in a kun ming mouse model of human cervical cancer. The survival time of mice after tumor injection and treatment was studied.
as §1
The animals were prepared in a similar manner as described in Section 8.1.
The mice injected with tumor cells were immediately divided into 4 experimental groups of ten mice per group and one control group. The four experimental groups were triplicated (i.e., using a total of 120 mice in the experimental groups). In group 2AY, the mice received 0.5 ml of the biological composition once per day. In group 2NY, the mice received 0.5 ml of the untreated yeast cells once per day. In group 2VCR, the mice were injected intravenously with 4.5 mg of […] (VCR) per kg body weight per day. In group 2CK1, the mice received 0.5 ml of physiological saline once per day.
The mice received the biological composition, untreated yeast cells, VCR or saline on the same day as the tumor cells were transplanted. The mice in group 2CK2 also started receiving saline on the same day as the other four groups. The biological composition, untreated yeast cells and saline were administered orally by a feeding tube and the VCR by intravenous injection for 30 consecutive days. The mice were observed over 6 months from the day of tumor inoculation and survival was recorded. The weight of the mice and the weight of the tumor were determined by standard techniques.

[5] = 0 month after cessation of treatment
[6] = 1 month after cessation of treatment
[7] = 2 months after cessation of treatment
[8] = 3 months after cessation of treatment
[9] = 4 months after cessation of treatment
[10] = 5 months after cessation of treatment
[11] = 6 months after cessation of treatment
[12] = surviving mice after 6 months observation, U14, 615 mice, 0.5 ml oral per day (2MMC 1.2 mg/kg/day s.c.) for 30 days
[13] = surviving mice after 6 months observation, U27, kun ming mice, 0.5 ml oral per day (2VCR 4.5 mg/kg/day i.v.) for 30 days

CO[C@@]12[C@H](COC(N)=O)C3=C(C(=O)C(C)=C(N)C3=O)N1C[C@@H]1N[C@@H]12 [MMC, mitomycin C]
Number of live animals remaining in the groups after 30 days of treatment [1, 5]: 30
Number of live animals remaining in the groups after 30 days of treatment [1, 6]: 30
Number of live animals remaining in the groups after 30 days of treatment [1, 7]: 24
Number of live animals remaining in the groups after 30 days of treatment [1, 8]: 13
Number of live animals remaining in the groups after 30 days of treatment [1, 9]: 0
Number of live animals remaining in the groups after 30 days of treatment [1, 10]: 0
Number of live animals remaining in the groups after 30 days of treatment [1, 11]: 0
death during the experiment ([1]; observed over 6 months, 2NY 0.5 ml per day, 2MMC 1.2 mg/kg/day): all died during the experiment
mean weight of mice and standard deviation [1, 12]: all animals dead
mean weight of tumor nodules and standard deviation [1, 12]: all animals dead
mean weight of mice and standard deviation [2]: 19.3 ± 3.3 g
mean weight of tumor nodules and standard deviation [2]: 4.4 ± 2.23 mg

CC[C@]1(O)C[C@@H]2CN(CCc3c([nH]c4ccccc34)[C@@](C(=O)OC)(c3cc4c(cc3OC)N(C)[C@H]3[C@@](O)(C(=O)OC)[C@H](OC(C)=O)[C@]5(CC)C=CCN6CC[C@]43[C@@H]65)C2)C1 [VCR, vinblastine]
mean weight of mice and standard deviation [3]: 18.5 ± 3.7 g
mean weight of tumor nodules and standard deviation [3]: 4.77 ± 2.79 g
Number of live animals remaining in the groups after 30 days of treatment [4, 5]: 30
Number of live animals remaining in the groups after 30 days of treatment [4, 6]: 30
Number of live animals remaining in the groups after 30 days of treatment [4, 7]: 22
Number of live animals remaining in the groups after 30 days of treatment [4, 8]: 17
Number of live animals remaining in the groups after 30 days of treatment [4, 9]: 4
Number of live animals remaining in the groups after 30 days of treatment [4, 10]: 0
Number of live animals remaining in the groups after 30 days of treatment [4, 11]: 0
death during the experiment ([4]; observed over 6 months, 2NY 0.5 ml per day, 2VCR 4.5 mg/kg/day): all died during the experiment
mean weight of mice and standard deviation [4, 13]: all animals dead
mean weight of tumor nodules and standard deviation [4, 13]: all animals dead
